The subject of this assay is Japanese white rabbits. The assay is described as follows: Dryness stress test using rabbits (methylene blue staining of corneas). The assay is classed as in vivo, rabbit. The conditions noted are these: eyelids open 3 hours, 100 μL per eye, 0.5% w/v or 3% w/v in physiological saline, compared with sodium chondroitin sulfate around 20,000, p<0.01. The method, then: Sodium chondroitin sulfate having a weight average molecular weight of around 20,000 (Maruha Nichiro Corporation; sodium chondroitin sulfate in Japanese Pharmaceutical Codex) or sodium chondroitin sulfate having a weight average molecular weight of around 40,000 (SEIKAGAKU CORPORATION; grade N-K) was dissolved in a physiological saline solution (Otsuka Pharmaceutical Factory, Inc.) to 0.5% w/v or 3% w/v separately to prepare test substances.
Rabbits (Japanese white rabbits (KITAYAMA LABES CO., LTD.)) classified into five groups (n=5) according to the method of Nagano et al. (Journal of the Eye, 13(2), 267-270, 1996) were put under general anesthesia, rings obtained by cutting finger portions of gloves into a ring form were then installed on the right and left eyeballs, and the eyelids were opened forcedly. […] The corneas were excised from the eye surfaces, methylene blue dye was then extracted, and the absorbance at 660 nm was measured using the microplate reader Multiskan GO (Thermo Fisher Scientific K.K.). Since a cornea lesion is formed by eye dryness, and the amount of the dye attached to the cornea surfaces increases, it can be estimated that as the absorbance value increases, the eyes become dryer.

With sodium chondroitin sulfate, the “absorbance at 660 nm (methylene blue dye extracted from corneas)” value was “remarkably low”.
